Data taken from US20110028719A1, “SCREENING METHODS FOR AMYLOID BETA MODULATORS” (priority 2006, published 2011).

target: immobilized Aβ fibrils (Homo sapiens, UniProt P05067); experiment: FAC-MS assay of free Aβ monomer (indicator) binding to immobilized Aβ fibrils in the presence of test compounds; settings: FAC-MS % shift of breakthrough time of free Aβ1-42 monomer (1 μM) on immobilized Aβ fibrils; compounds 1-10 μM in 20 mM NH4OAc, 1% DMSO; void marker M3
Sequence (P05067 672-713 limits assumed): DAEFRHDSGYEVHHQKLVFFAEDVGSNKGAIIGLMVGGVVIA

Row | Molecule | % of Shift
1 | O[C@H]1[C@H](O)[C@@H](O)[C@H](O)[C@@H](O)[C@H]1O [Myo, myo-inositol, reference compound] | 34%
2 | CC(C)(C)C(=O)OC1C(O)C(OC(=O)C(C)(C)C)C(OC(=O)C(C)(C)C)C(OC(=O)C(C)(C)C)C1OC(=O)C(C)(C)C (centres unmarked) [Compound 37387002, 2,3,4,5-tetrakis[(2,2-dimethylpropanoyl)oxy]-6-hydroxycyclohexyl pivalate] | 5%
3 | O=P(O)(O)O[C@H]1[C@H](OP(=O)(O)O)[C@@H](OP(=O)(O)O)[C@H](OP(=O)(O)O)[C@@H](OP(=O)(O)O)[C@H]1OP(=O)(O)O [Compound P-3168, Phytic acid, reference compound] | 2%
4 | O=C(OC1C(O)C(OC(=O)c2ccccc2)C(OC(=O)c2ccccc2)C(OC(=O)c2ccccc2)C1OC(=O)c1ccccc1)c1ccccc1 (centres unmarked) [Compound 37387010, 2,3,5,6-tatrakis(benzoyloxy)-4-hydroxycyclohexyl benzoate] | 2%
5 | O=S(=O)([O-])OC1C(OS(=O)(=O)[O-])C(OS(=O)(=O)[O-])C(OS(=O)(=O)[O-])C(OS(=O)(=O)[O-])C1OS(=O)(=O)[O-].[K+].[K+].[K+].[K+].[K+].[K+] (centres unmarked) [Compound I-6005, myo-inositol hexasulfate hexapotasium, reference compound] | 4%
6 | CC(C)C(=O)OC1C(OC(=O)C(C)C)C(OC(=O)C(C)C)C(OC(=O)C(C)C)C(OC(=O)C(C)C)C1OC(=O)C(C)C (centres unmarked) [Compound 37387007, 2,3,4,5,6-pentakis(isobutyryloxy)cyclohexyl 2-methylproanoate] | 5%
7 | O[C@H]1[C@H](O)[C@@H](O)[C@H](O)[C@@H](O)[C@@H]1O [AZD-103, scyllo-inositol, reference compound] | 84%
8 | 1,2,5,6-bis-O-(1-Methylethyldene)-3-methyl-1D-chiro-inositol [Compound 53234-7, reference compound] | 4%

Results, then the molecule that gave them:

Row | % of Shift | Molecule
9 | 3% | CC(=O)OC1C(OC(=O)CC(C)C)C(OC(=O)CC(C)C)C(OC(=O)CC(C)C)C(OC(=O)CC(C)C)C1OC(=O)CC(C)C (centres unmarked) [Compound 37387013, 2-(acetyloxy)-3,4,5,6-tetrakis[(3-methylbutanoyl)oxy]cyclohexanyl 3-methylbutanoate]
10 | 2% | O=C(/C=C/c1ccc(O)c(O)c1)O[C@@H]1C[C@](O)(C(=O)O)C[C@@H](O)[C@H]1O [Compound C-3878, Chlorogenic acid, reference compound]

same assay, conditions: FAC-MS screen; shift of free Aβ monomer breakthrough on immobilized Aβ fibrils in presence of compound; scale not given

Row | Molecule | Aβ Shift
11 | CC1CC(NN(C)C)C(C#N)(C#N)C(C)C1(C#N)C#N (centres unmarked) | 2
12 | CC12CC3(C)CC(C)(C1)CC(CC(=O)O)(C2)C3 | 1
13 | CC12CC3(C)CC(N)(C1)CC(C(=O)O)(C2)C3 | 2
14 | CC(NC(=O)C12CC3(C)CC(C)(CC(C)(C3)C1)C2)C(=O)O (centres unmarked) | 2
15 | CC12CC3(C)CC(C)(C1)CC(C(N)=O)(C2)C3 | 1
16 | CC12CC3CC(O)(C1)CC(C(=O)O)(C3)C2 (centres unmarked) | 1
17 | CC12CC3(C)CC(N)(C1)CC(O)(C2)C3 | 1
18 | CC12CC3(C)CC(C)(C1)CC(C1(C)CC(=O)O1)(C2)C3 (centres unmarked) | 0
19 | CC12CC3CC(C)(C1)CC(C(=O)NC1=NCCS1)(C3)C2 | 1
20 | CNC(=O)C12CC3(C)CC(C)(CC(C)(C3)C1)C2 | 1
21 | CC1(C)CC(=O)C2=C(C1)CC1(C)CC(C)(C)CC2(C#N)C1 (centres unmarked) | 0
22 | CC(C)(C)C(=O)O[C@H]1[C@H](OC(=O)C(C)(C)C)[C@@H](OC(=O)C(C)(C)C)[C@H](OC(=O)C(C)(C)C)[C@@H](OC(=O)C(C)(C)C)[C@H]1OC(=O)C(C)(C)C | 4
23 | CC12CC3(C)CC(C)(C1)CC(C(=O)NCCO)(C2)C3 | 2
24 | CC12CC3(C)CC(C)(C1)CC(C(=O)O)(C2)C3 | 2
25 | CCN1CCC(NC2CCCC(C)C2C)CC1 (centres unmarked) | 1
26 | CC12CC3CC(C)(C1)CC(CC(=O)NNC(N)=O)(C3)C2 | 2
27 | OCC1(CO)CCCC(CO)(CO)C1O | 1
28 | O=C1OC2C3CC([C@@H]2I)[C@@H](CO)C13 (some centres unmarked) | 0

Continued, values first:

Row | Aβ Shift | Molecule
29 | 1 | CC(CCc1ccc(O)cc1)NC1CCCC(C)C1C (centres unmarked)
30 | 1 | CC1CCCC(n2c(=S)[nH]c3ccccc3c2=O)C1C (centres unmarked)
31 | 2 | CC[N+](CC)(CC)CCCOC1CC(C)CCC1C(C)C (centres unmarked)
32 | 1 | Cc1cc[n+](CC(=O)OC2CC(C)CCC2C(C)C)cc1 (centres unmarked)
33 | 2 | CC1CC(NS(=O)(=O)c2cccs2)CC(C)(C)C1 (centres unmarked)
34 | 1 | CC1CCC(C(C)C)C(OC(=O)c2ccncc2)C1 (centres unmarked)
35 | 0 | CC1CC(OC(=O)/C=C/c2ccccc2)CC(C(C)C)C1 (centres unmarked)
36 | 0 | CC(C)(C)C1CC(C(=O)O)CC(C(=O)O)C1 (centres unmarked)
37 | 2 | CC1CCCC(NC(=O)c2ccccc2C(=O)O)C1C (centres unmarked)
38 | 1 | CN(C)CCNC(=O)C12CC3CC(C)(CC(C)(C3)C1)C2
39 | 1 | CC(C)(C)C1CC(C(=O)O)CC(C(C)(C)C)C1 (centres unmarked)
40 | 0 | CC1CC(C(=O)O)CC(C(=O)O)C1 (centres unmarked)
41 | 2 | CC1CCCC(NC(=O)c2cc3sccc3n2C)C1C (centres unmarked)
42 | 2 | CC1CCCC(N2CNC(=S)NC2)C1C (centres unmarked)
43 | 1 | CC1C2CC3(C)CC(C(=O)O)(C2)CC1(C)C3 (centres unmarked)
44 | 1 | O=C(O)C1(O)CC(O)C(O)C(O)C1 (centres unmarked)
45 | 4 | CCC(=O)O[C@H]1[C@H](OC(=O)CC)[C@@H](OC(=O)CC)[C@H](OC(=O)CC)[C@@H](OC(=O)CC)[C@H]1OC(=O)CC
46 | 1 | Cc1cc(NC(=O)C23CC4CC(C)(CC(C)(C4)C2)C3)no1

Row | Aβ Shift | Molecule
47 | 1 | CC(O)C#CC1(O)C(C)CCCC1(C)C (centres unmarked)
48 | 1 | COC(=O)C12CC3(C)CC(C)(CC(C)(C3)C1)C2
49 | 1 | COC(=O)C12CCC(C)(C(O)C1)C2(C)C (centres unmarked)
50 | 2 | CC1CCC(COC(=O)C[N+]2(C)CCCCC2)C(C)C1 (centres unmarked)
51 | 0 | CC1CC(NC(=O)C2(C)CC2(Cl)Cl)CC(C)(C)C1 (centres unmarked)
52 | 1 | COC(=O)C1(C)CC2(C)CC(C)(C1)C(=O)N(C)C2=O (centres unmarked)
53 | 0 | CC1CCN(CC(O)COC2CC(C)CC(C)(C)C2)CC1 (centres unmarked)
54 | 2 | CC1CCCC(N2CNc3nc4ccccc4n3C2)C1C (centres unmarked)
55 | 1 | CC1CC2(C)CC(C)C1(CO)CO2 (centres unmarked)
56 | 1 | CC12CC3CC(C)(C1)CC(C(=O)Nc1nccs1)(C3)C2
57 | 2 | CC1CCCC(NC(=O)c2csc3c2CCCC3)C1C (centres unmarked)
58 | 1 | CC12CC3CC(C)(C1)CC(CNC(=O)c1ccccc1)(C3)C2
59 | 1 | CC12CC3CC(C)(C1)CC(C(=O)NC(C)(C)CO)(C3)C2
60 | 1 | CC1CCCC(C)C1CO (centres unmarked)
61 | 0 | CC1(C)CC(=O)C2=C(C1)CC1(C)CC(C)(C)CC2(O)C1 (centres unmarked)
62 | 0 | COc1cccc(OC)c1C(=O)OC1CC(C)CC(C)C1 (centres unmarked)
63 | 1 | CC1CCC(C(C)C)C(OC(=O)C[n+]2ccccc2)C1 (centres unmarked)

same assay, conditions: increasing concentrations; breakthrough curves shifted to the left (greater % shift); FIG. 3

Row | Molecule | effect of increasing concentrations on free Aβ monomer binding time
64 | O[C@H]1[C@H](O)[C@@H](O)[C@H](O)[C@@H](O)[C@@H]1O [scyllo-cyclohexanehexyl, scyllo-inositol, reference compound] | dose dependent reduction in the free Aβ monomer binding time

same assay, conditions: pretreatment of column with 1 to 10 μM; FIG. 5

Row | Molecule | effect of pretreatment of immobilized Aβ aggregates
65 | O[C@H]1[C@H](O)[C@@H](O)[C@H](O)[C@@H](O)[C@@H]1O [AZD-103, scyllo-inositol, reference compound] | prevents binding and/or breaks down of Aβ fibrils
